Columns and labels:
IRAK1 = target: T1, IRAK1 (Homo sapiens, UniProt P51617); assay: RBC HotSpot Kinase Assay, IRAK1; assay type: biochemical; conditions: isolated kinase, 33P-ATP
T1 construct: purchased Reaction Biology (RBC), HotSpot kinase assay
Source text: (§1) This assay uses the isolated kinase enzyme. This assay is very useful for determining competition of the inhibitor for ATP and/or substrates and for measuring the kinetics of enzyme inhibition. […] Unlike kinase binding assays that measure competition for ATP, the HotSpot Kinase Assay is a functional assay that measures catalytic activity; as such it measures relative functional potency regardless of the mechanism of enzyme inhibition. This assay uses the form of the various enzymes that are easiest to express, which may not necessarily be the form of the enzyme that exist in the cell. (Sometimes the carboxy terminus has been truncated to aid in expression, or, if it is a receptor kinase, the enzyme itself is isolated from the other parts of the receptor that are involved in regulating kinase activity.)
(§2) The reagent used was as follows: Base Reaction buffer; 20 mM Hepes (pH 7.5), 10 mM MgCl2, 1 mM EGTA, 0.01% Brij35, 0.02 mg/ml BSA, 0.1 mM Na3VO4, 2 mM DTT, 1% DMSO. Required cofactors were added individually to each kinase reaction.
(§3) The reaction procedure was as follows: • 1) Substrates were prepared in freshly prepared Reaction Buffer. • 2) Any required cofactors were delivered to the substrate solution above. • 3) Kinase was delivered into the substrate solution and gently mixed. • 4) Compounds were delivered in 100% DMSO into the kinase reaction mixture by Acoustic technology (Echo550; nanoliter range), followed by incubation for 20 min at room temp. • 5)^33P-ATP was delivered into the reaction mixture to initiate the reaction. • 6) The mixture was incubated for 2 hours at room temperature. • 7) Kinase activity was detected by P81 filter-binding method.

MOLM14 D835Y cells = assay: MOLM14 D835Y cell viability assay (Cell Titer Glo); assay type: cell-based
Experimental: (§4) Both cell lines have activated FLT3 receptors, each of which carry additional resistance mutations in the kinase domain (D835Y and F691L, respectively).
(§5) MOLM14 D835Y and MOLM14 F691L cells were grown in RPMI-1640 media supplemented with 20% fetal bovine serum (FBS). For viability/cytotoxicity assessments, cells were seeded into 1536-well white polystyrene tissue culture-treated Greiner plates using a Multidrop Combi dispenser (ThermoFisher), in final volume 5 μL of growth media per well, at a density of 1000 cells per well. After cell addition, 23 nL of test compound were transferred into individual wells (22 doses tested for each test compound, with a 1:2 dilution series starting at 10 μM) via a 1536 pin-tool. Bortezomib (final concentration 2.3 μM) was used as a positive control for cell cytotoxicity. Plates were incubated for 48 hours at standard incubator conditions covered by a stainless steel gasketed lid to prevent evaporation. 48 hours post compound addition, 3 μL of Cell Titer Glo (Promega) were added to each well and plates were incubated at room temperature for 15 minutes with the stainless-steel lid in place. Luminescence readings were taken using a Viewlux imager (PerkinElmer) with a 2 second exposure time per plate.

MOLM14 F691L cells = assay: MOLM14 F691L cell viability assay (Cell Titer Glo); assay type: cell-based
Experimental: as §4, §5

IRAK4 = target: T2, IRAK4 (Homo sapiens, UniProt Q9NWZ3); assay: RBC HotSpot Kinase Assay, IRAK4; assay type: biochemical; parameters: purchased Reaction Biology (RBC), HotSpot kinase assay; conditions: isolated kinase, 33P-ATP
T2 sequence (Q9NWZ3 1-460): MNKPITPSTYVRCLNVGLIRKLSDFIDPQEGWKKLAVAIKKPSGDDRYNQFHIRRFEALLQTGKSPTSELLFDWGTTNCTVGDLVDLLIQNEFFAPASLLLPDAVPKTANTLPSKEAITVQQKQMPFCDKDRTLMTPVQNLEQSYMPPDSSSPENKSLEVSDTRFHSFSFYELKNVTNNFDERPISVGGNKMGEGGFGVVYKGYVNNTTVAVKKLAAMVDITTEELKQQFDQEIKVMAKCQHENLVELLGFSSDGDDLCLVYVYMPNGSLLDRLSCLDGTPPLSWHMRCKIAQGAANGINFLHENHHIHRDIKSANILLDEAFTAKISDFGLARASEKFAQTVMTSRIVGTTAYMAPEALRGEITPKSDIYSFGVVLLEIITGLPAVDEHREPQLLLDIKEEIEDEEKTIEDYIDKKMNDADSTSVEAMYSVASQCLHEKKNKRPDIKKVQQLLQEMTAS
Source text: as §1, §2, §3

FLT3 = target: T3, FLT3 (Homo sapiens, UniProt P36888); assay: RBC HotSpot Kinase Assay, FLT3; assay type: biochemical; parameters: purchased Reaction Biology (RBC), HotSpot kinase assay; conditions: isolated kinase, 33P-ATP
T3 sequence (P36888 27-993): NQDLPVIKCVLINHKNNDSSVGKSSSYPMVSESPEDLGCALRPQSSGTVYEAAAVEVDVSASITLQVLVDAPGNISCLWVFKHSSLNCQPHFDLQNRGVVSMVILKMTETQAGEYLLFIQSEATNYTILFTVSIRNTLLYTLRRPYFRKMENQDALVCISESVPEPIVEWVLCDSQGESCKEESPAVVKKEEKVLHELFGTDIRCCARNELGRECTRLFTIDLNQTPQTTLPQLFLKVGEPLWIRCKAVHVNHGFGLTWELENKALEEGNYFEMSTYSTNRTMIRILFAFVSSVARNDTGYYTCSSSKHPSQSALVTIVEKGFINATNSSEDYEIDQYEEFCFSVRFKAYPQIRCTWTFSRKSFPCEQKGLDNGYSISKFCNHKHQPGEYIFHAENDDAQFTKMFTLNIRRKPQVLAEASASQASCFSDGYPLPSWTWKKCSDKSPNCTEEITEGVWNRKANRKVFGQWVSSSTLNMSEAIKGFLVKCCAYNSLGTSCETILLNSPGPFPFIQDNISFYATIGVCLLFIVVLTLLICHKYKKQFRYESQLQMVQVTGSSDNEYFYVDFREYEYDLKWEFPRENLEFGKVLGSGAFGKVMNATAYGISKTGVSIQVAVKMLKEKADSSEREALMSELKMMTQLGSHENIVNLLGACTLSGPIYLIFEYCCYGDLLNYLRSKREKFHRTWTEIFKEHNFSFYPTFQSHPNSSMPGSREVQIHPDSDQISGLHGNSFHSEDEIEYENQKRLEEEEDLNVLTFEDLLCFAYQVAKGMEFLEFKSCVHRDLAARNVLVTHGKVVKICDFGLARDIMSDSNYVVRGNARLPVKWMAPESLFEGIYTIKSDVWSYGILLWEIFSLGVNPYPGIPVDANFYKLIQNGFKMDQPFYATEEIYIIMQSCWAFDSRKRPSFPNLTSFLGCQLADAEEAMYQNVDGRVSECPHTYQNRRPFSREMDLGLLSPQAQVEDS
Source text: as §1, §2, §3

T1 sequence (P51617 whole entry): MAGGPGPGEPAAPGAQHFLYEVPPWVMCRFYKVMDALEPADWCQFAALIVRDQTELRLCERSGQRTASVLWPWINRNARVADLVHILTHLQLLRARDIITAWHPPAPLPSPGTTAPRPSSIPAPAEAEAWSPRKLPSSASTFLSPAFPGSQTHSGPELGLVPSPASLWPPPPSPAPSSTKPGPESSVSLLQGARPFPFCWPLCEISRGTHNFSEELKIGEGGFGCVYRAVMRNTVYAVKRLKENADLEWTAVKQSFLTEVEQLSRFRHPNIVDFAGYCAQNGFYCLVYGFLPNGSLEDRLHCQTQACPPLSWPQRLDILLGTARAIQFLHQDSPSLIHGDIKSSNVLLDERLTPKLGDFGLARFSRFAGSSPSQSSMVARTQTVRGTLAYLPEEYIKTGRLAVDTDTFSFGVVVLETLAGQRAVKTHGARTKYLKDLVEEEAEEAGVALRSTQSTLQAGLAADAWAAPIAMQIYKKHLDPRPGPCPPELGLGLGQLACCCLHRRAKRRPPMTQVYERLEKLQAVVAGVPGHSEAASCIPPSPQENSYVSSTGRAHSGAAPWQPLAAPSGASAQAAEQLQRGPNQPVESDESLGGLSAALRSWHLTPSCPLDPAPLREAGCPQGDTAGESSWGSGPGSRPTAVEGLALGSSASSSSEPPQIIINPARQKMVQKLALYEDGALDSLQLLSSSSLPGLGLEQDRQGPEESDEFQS

SMILES | IC50 (IRAK1) [µM] | IC50 (MOLM14 D835Y cells; Homo sapiens, MOLM-14, 48 h) [µM] | IC50 (MOLM14 F691L cells; Homo sapiens, MOLM-14, 48 h) [µM] | IC50 (IRAK4) [µM] | IC50 (FLT3) [µM] | IC50 (MOLM14 D835Y cells; 48 hours) [µM] | IC50 (MOLM14 F691L cells; 48 hours) [µM]
CC(O)(c1cn2c(-c3cc(F)cc(N[C@H]4CNC[C@@H]4F)n3)cnc2cn1)C(F)(F)F (single isomer, unassigned) [Compound 83] | 0.329 | 0.344 | 0.486 | 0.028 | < 0.0005 | – | –
CC(O)(c1cn2c(-c3cc(F)cc(N[C@H]4CNC[C@@H]4F)n3)cnc2cn1)C(F)(F)F (single isomer, unassigned) [Compound 84] | 0.114 | – | – | 0.002 | 0.0006 | 0.183 | 0.41
CC(O)(c1cn2c(-c3cc(F)cc(N[C@@H]4CCCNC4)n3)cnc2cn1)C(F)(F)F (single isomer, unassigned) [Compound 85] | 0.106 | 0.154 | 0.29 | 0.054 | 0.0006 | – | –
CC(O)(c1cn2c(-c3cc(F)cc(N[C@H]4CNCC[C@@H]4F)n3)cnc2cn1)C(F)(F)F (single isomer, unassigned) [Compound 86] | 0.144 | – | 0.365 | 0.065 | 0.0009 | 0.205 | –
CC(O)(c1cn2c(-c3cc(F)cc(N[C@@H]4CCCNC4)n3)cnc2cn1)C(F)(F)F (single isomer, unassigned) [Compound 87] | 0.046 | – | – | 0.005 | 0.0007 | 0.116 | 0.309
CC(O)(c1cn2c(-c3cc(F)cc(N[C@H]4CNCC[C@@H]4F)n3)cnc2cn1)C(F)(F)F (single isomer, unassigned) [Compound 88] | 0.069 | – | – | 0.015 | 0.001 | 0.097 | 0.217
CC(O)(c1cn2c(-c3nc(N[C@@H]4CCCNC4)c(F)cc3F)cnc2cn1)C(F)(F)F (single isomer, unassigned) [Compound 89] | 0.009 | – | 0.649 | < 0.0005 | < 0.0005 | 0.041 | –
CC(O)(c1cn2c(-c3nc(N[C@@H]4CCCNC4)c(F)cc3F)cnc2cn1)C(F)(F)F (single isomer, unassigned) [Compound 90] | 0.016 | – | – | 0.007 | 0.002 | 0.096 | 0.817
CC(O)(c1cn2c(-c3nc(N[C@H]4CNC[C@@H]4F)c(F)cc3F)cnc2cn1)C(F)(F)F (single isomer, unassigned) [Compound 91] | 0.04 | – | 1.54 | 0.002 | 0.003 | 0.195 | –
CC(O)(c1cn2c(-c3nc(N[C@H]4CNCC[C@@H]4F)c(F)cc3F)cnc2cn1)C(F)(F)F (single isomer, unassigned) [Compound 92] | 0.011 | 0.087 | 0.969 | 0.002 | 0.002 | – | –
CC(O)(c1cn2c(-c3nc(N[C@H]4CNC[C@@H]4F)c(F)cc3F)cnc2cn1)C(F)(F)F (single isomer, unassigned) [Compound 93] | 0.008 | – | – | < 0.0005 | 0.001 | 0.073 | 0.969
CC(O)(c1cn2c(-c3nc(N[C@H]4CNCC[C@@H]4F)c(F)cc3F)cnc2cn1)C(F)(F)F (single isomer, unassigned) [Compound 94] | 0.008 | – | – | 0.0008 | 0.001 | 0.077 | 0.864
CC1(c2cn3c(-c4cccc(N[C@@H]5CCCNC5)n4)cnc3cn2)CC1 [Compound 2, (R)-6-(6-(1-methylcyclopropyl)imidazo[1,2-a]pyrazin-3-yl)-N-(piperidin-3-yl)pyridin-2-amine] | 0.067 | 0.007 | 0.034 | 0.0007 | < 0.0005 | – | –
F[C@H]1CNC[C@@H]1Nc1cccc(-c2cnc3cnc(C4(C(F)(F)F)CC4)cn23)n1 [Compound 8, N-((3S,4S)-4-fluoropyrrolidin-3-yl)-6-(6-(1-(trifluoromethyl)cyclopropyl)imidazo[1,2-a]pyrazin-3-yl)pyridin-2-amine] | 0.138 | 0.044 | 0.376 | 0.002 | < 0.0005 | – | –
FC(F)(F)C1(c2cn3c(-c4cccc(N[C@@H]5CCCNC5)n4)cnc3cn2)CC1 [Compound 9, (R)-N-(piperidin-3-yl)-6-(6-(1-(trifluoromethyl)cyclopropyl)imidazo[1,2-a]pyrazin-3-yl)pyridin-2-amine] | 0.126 | 0.018 | 0.106 | 0.007 | < 0.0005 | – | –
FC(F)(F)C1(c2cn3c(-c4cccc(N[C@H]5CNCC56CC6)n4)cnc3cn2)CC1 [Compound 12, (R)-N-(6-(6-(1-(trifluoromethyl)cyclopropyl)imidazo[1,2-a]pyrazin-3-yl)pyridin-2-yl)-5-azaspiro[2.4]heptan-7-amine] | 0.165 | 0.007 | 0.072 | 0.003 | < 0.0005 | – | –
Cn1cc(-c2cn3c(-c4cccc(N[C@@H]5CCNC5)n4)cnc3cn2)cn1 [Compound 49, (R)-6-(6-(1-methyl-1H-pyrazol-4-yl)imidazo[1,2-a]pyrazin-3-yl)-N-(pyrrolidin-3-yl)pyridin-2-amine] | 0.196 | 0.009 | – | 0.001 | < 0.0005 | – | –
CC(O)(c1cn2c(-c3cccc(N[C@@H]4CCCNC4)n3)cnc2cn1)C(F)(F)F (stereo partly drawn) [Compound 79, 1,1,1-trifluoro-2-(3-(6-((R)-piperidin-3-ylamino)pyridin-2-yl)imidazo[1,2-a]pyrazin-6-yl)propan-2-ol] | – | 0.084 | 0.237 | – | – | – | –

Reference: US12612410B2 (CHILDREN'S HOSPITAL MEDICAL CENTER, priority 2020, dated 2026)
